Laboratory results from patent publication EP0450573A2, “Antibodies for the treatment and diagnosis of Pseudomonas aeruginosa infections” (priority 1990, dated 1991).

System: P. aeruginosa strain FI-6(A366)
Test: Opsonophagocytic assay (bactericidal activity with complement and polymorphonuclear cells)
Type: cell-based
Conditions: cefepime alone, 0 µg/ml 6D7 data point of Figure 1
Description: Overnight cultures of P. aeruginosa FI-6 in adjusted Miller-Hinton broth containing 50 mg/l calcium chloride and 25 mg/l magnesium chloride were innoculated into media lacking or containing 1 µg/ml amikacin; this concentration of antibiotic allows almost normal growth of the bacterial culture. The bacterial cultures were incubated until mid-logarithmic phase of growth was attained, and then the bacteria were harvested by centrifugation, and resuspended to 5 x 10⁴ cells/ml in gelatin veronal buffer. […] Opsonic activity of antibodies directed against amikacin-treated bacteria was determined in the presence of 1 µg/ml amikacin. […] The amount of bacterial killing, was determined by plating 25 µl from each tube onto solid agar, growing the plated bacteria overnight, and counting the number of colonies on the plate. […]
The opsonophagocytic activity of varying amounts of monoclonal antibody 6D7 towards P. aeruginosa strain FI-6 cells was determined in the presence or absence of subinhibitory concentrations of the antibiotic, cefepime. […]

**Q.** How did the survival turn out when `CO/N=C(\C(=O)N[C@@H]1C(=O)N2C(C(=O)[O-])=C(C[N+]3(C)CCCC3)CS[C@H]12)c1csc(N)n1` [cefepime] was run?
**A.** The survival was 100%.
